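Protocol summary: plate cells (96-well), add compound at 5 concentrations, incubate 48 h, interpolate endpoints linearly. GI50: concentration for 50% inhibition of growth.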 Active and inactive are the calls of the source. Cut-off read from the data, not from the text of the source: active = GI50 up to about 1.1 µM and inactive = higher.

Some test systems named below: NCI-H522; OVCAR-5; NCI-H23; ACHN; MCF7; IGROV-1; SW-620; Malme-3M; UACC-257; SK-MEL-2; 786-0; OVCAR-8; U-251; SNB-75; MOLT-4; NCI/ADR-RES; CAKI-1; NCI-H460; OVCAR-3; HCT-116.
Common to all, as to test: NCI-60 cell line screen, 48 h

As for `CSCCC(NCc1c(O)ccc2ccc(=O)oc12)C(=O)O` (stereo not given), the GI50 with NCI-H522, with OVCAR-5, in the assay on NCI-H23, with ACHN, with MCF7 and in the assay with IGROV-1 was > 100 µM (inactive) each time. For the same compound, the GI50 in the assay on SW-620, in the assay on Malme-3M, with UACC-257, with SK-MEL-2, in the assay on 786-0 and in the assay with OVCAR-8 was > 100 µM (inactive) throughout. Besides, the GI50 in the assay on U-251 was > 100 µM (inactive); with SNB-75, 16.9 µM (inactive); in the assay with MOLT-4, > 100 µM (inactive); in the assay with NCI/ADR-RES it was > 100 µM (inactive); in the assay with CAKI-1 it was > 100 µM (inactive); in the assay on NCI-H460 it was > 100 µM (inactive). The GI50 in the assay with OVCAR-3 and in the assay with HCT-116 was > 100 µM (inactive) throughout.
In the case of `CCOC(=O)N1c2ccccc2N(C(=O)OCC)C1CC(=O)/C=C/c1ccccc1`, the GI50 with NCI-H522 is 1.78 µM (inactive); in the assay on OVCAR-5, 2.65 µM (inactive); in the assay on NCI-H23 it was 2.88 µM (inactive); in the assay with ACHN, 4.15 µM (inactive); in the assay with MCF7, 3.1 µM (inactive); with IGROV-1, 3.63 µM (inactive). The GI50 in the assay on SW-620 was 2.06 µM (inactive); in the assay with Malme-3M it was 4.06 µM (inactive); with UACC-257, 6.49 µM (inactive); with SK-MEL-2, 1.94 µM (inactive); in the assay with 786-0, 3.3 µM (inactive); in the assay on OVCAR-8, 2.65 µM (inactive). Further, the GI50 with U-251 is 3.46 µM (inactive); in the assay on SNB-75 it was 3.34 µM (inactive); in the assay with MOLT-4, 2.4 µM (inactive); in the assay on NCI/ADR-RES it was 2.73 µM (inactive); in the assay with CAKI-1 it was 1.44 µM (inactive); with NCI-H460, 3.03 µM (inactive). The GI50 with OVCAR-3 was 3.13 µM (inactive); in the assay with HCT-116 it was 3.3 µM (inactive).
With `N=C(N)NCCCC(NCc1c2ccccc2nc2ccccc12)C(=O)O` (stereo not given), the GI50 was 22.9 µM (inactive) in the assay with NCI-H522; > 100 µM (inactive) in the assay on OVCAR-5; 53.1 µM (inactive) with NCI-H23; 31.5 µM (inactive) with ACHN; 32 µM (inactive) with MCF7; 34.7 µM (inactive) with IGROV-1. The GI50 in the assay on SW-620 is 25.5 µM (inactive); with Malme-3M it was > 73.1 µM (inactive); in the assay with UACC-257, 33.7 µM (inactive); with SK-MEL-2, 41 µM (inactive); in the assay with 786-0, 31.3 µM (inactive); in the assay on OVCAR-8, 25.7 µM (inactive). For the same compound, the GI50 with U-251 was 47.2 µM (inactive); in the assay with SNB-75, 45.2 µM (inactive); in the assay with MOLT-4, 8 µM (inactive); in the assay on NCI/ADR-RES it was 28.5 µM (inactive); in the assay with CAKI-1, 26.6 µM (inactive); with NCI-H460, 36.1 µM (inactive). Further, the GI50 in the assay with OVCAR-3 was 40.9 µM (inactive); in the assay on HCT-116 it was 11.4 µM (inactive).
Take `OC(COc1cccc2ccccc12)CN1CCOCC1` (stereo not given): the GI50 was 54 µM (inactive) in the assay with NCI-H522; > 100 µM (inactive) in the assay with OVCAR-5; > 100 µM (inactive) in the assay on NCI-H23; > 100 µM (inactive) in the assay on ACHN; > 100 µM (inactive) with MCF7; 39.9 µM (inactive) in the assay on IGROV-1. In addition, the GI50 in the assay on SW-620, in the assay with Malme-3M, in the assay with UACC-257, with SK-MEL-2, in the assay on 786-0 and in the assay on OVCAR-8 was > 100 µM (inactive) each time. In addition, the GI50 in the assay with U-251 was > 100 µM (inactive); with SNB-75, > 100 µM (inactive); in the assay with MOLT-4 it was 44.6 µM (inactive); in the assay with NCI/ADR-RES, > 100 µM (inactive); in the assay with CAKI-1, > 100 µM (inactive); in the assay with NCI-H460, > 100 µM (inactive). The GI50 in the assay on OVCAR-3 and with HCT-116 was > 100 µM (inactive) throughout.
Consider `Nc1nc(Cl)cc(NCC2(CO)CCC(Cc3ccccc3)C2)n1` (stereo not given), for which the GI50 in the assay with NCI-H522 was 10.1 µM (inactive); in the assay with OVCAR-5, 33.3 µM (inactive); in the assay with NCI-H23, 2.87 µM (inactive); in the assay with ACHN it was 20 µM (inactive); in the assay with MCF7, 11.2 µM (inactive); in the assay with IGROV-1, 26.5 µM (inactive). Also, the GI50 in the assay with SW-620 was 15 µM (inactive); with Malme-3M, 10.2 µM (inactive); in the assay with UACC-257, 2.78 µM (inactive); with SK-MEL-2 it was 23.6 µM (inactive); in the assay with 786-0, 27.7 µM (inactive); in the assay with OVCAR-8, 15.6 µM (inactive). Further, the GI50 was 25.6 µM (inactive) in the assay on U-251; 33.6 µM (inactive) in the assay on SNB-75; 3.74 µM (inactive) with MOLT-4; 20.3 µM (inactive) in the assay with NCI/ADR-RES; 19.3 µM (inactive) in the assay on CAKI-1; 18.6 µM (inactive) with NCI-H460. In addition, the GI50 with OVCAR-3 was 43.1 µM (inactive); in the assay with HCT-116, 15.5 µM (inactive).
As for `Cn1c(=S)c2nc(SCc3cccnc3)[nH]c2n(C)c1=O`, the GI50 is 82 µM (inactive) with NCI-H522; > 100 µM (inactive) in the assay with OVCAR-5; > 100 µM (inactive) in the assay on NCI-H23; > 100 µM (inactive) in the assay on ACHN; > 100 µM (inactive) with MCF7; > 100 µM (inactive) in the assay on IGROV-1. Moreover, the GI50 with SW-620 was > 100 µM (inactive); in the assay with Malme-3M it was 93.8 µM (inactive); in the assay on UACC-257 it was > 100 µM (inactive); with SK-MEL-2, > 100 µM (inactive); in the assay on 786-0, > 100 µM (inactive); in the assay with OVCAR-8, > 100 µM (inactive). Moreover, the GI50 in the assay with U-251 was > 100 µM (inactive); with SNB-75, 96.8 µM (inactive); in the assay on MOLT-4 it was > 100 µM (inactive); with NCI/ADR-RES, > 100 µM (inactive); in the assay with CAKI-1 it was > 100 µM (inactive); in the assay on NCI-H460, > 100 µM (inactive). Also, the GI50 with OVCAR-3 and with HCT-116 was > 100 µM (inactive) each time.
Take `CC(=O)Oc1cccc2c1C(=O)CCCC2`: the GI50 in the assay with NCI-H522, in the assay with OVCAR-5, in the assay on NCI-H23, with ACHN, in the assay on MCF7 and with IGROV-1 was > 100 µM (inactive) in each case. Further, the GI50 in the assay with SW-620, with Malme-3M, in the assay with UACC-257, in the assay with SK-MEL-2, in the assay with 786-0 and in the assay with OVCAR-8 was > 100 µM (inactive) throughout. Further, the GI50 was > 100 µM (inactive) with U-251; 0.0692 µM (active) in the assay on SNB-75; > 100 µM (inactive) in the assay on MOLT-4; > 100 µM (inactive) in the assay on NCI/ADR-RES; > 100 µM (inactive) in the assay with CAKI-1; > 100 µM (inactive) in the assay with NCI-H460. Also, the GI50 with OVCAR-3 and in the assay with HCT-116 was > 100 µM (inactive) throughout.
On to `O=C1NN=C2C=C(c3ccc(Cl)cc3)CC(c3cccc(Br)c3)C12` (stereo not given), for which the GI50 is 38.4 µM (inactive) with NCI-H522; > 100 µM (inactive) in the assay on OVCAR-5; 87.3 µM (inactive) in the assay with NCI-H23; 33.7 µM (inactive) in the assay on ACHN; 44 µM (inactive) with MCF7; 51.3 µM (inactive) in the assay with IGROV-1. In addition, the GI50 in the assay on SW-620 was 81.8 µM (inactive); with Malme-3M, > 100 µM (inactive); in the assay with UACC-257, 22.4 µM (inactive); in the assay with SK-MEL-2, 84.5 µM (inactive); in the assay with 786-0 it was > 100 µM (inactive); with OVCAR-8 it was > 100 µM (inactive). Also, the GI50 is 59.2 µM (inactive) with U-251; 80.9 µM (inactive) in the assay on SNB-75; 43.9 µM (inactive) in the assay on MOLT-4; > 100 µM (inactive) in the assay with NCI/ADR-RES; 23.4 µM (inactive) in the assay with CAKI-1; 40 µM (inactive) in the assay on NCI-H460. The GI50 is 42.1 µM (inactive) in the assay with OVCAR-3 and 64.9 µM (inactive) in the assay with HCT-116.
In the case of `c1ccc2c(c1)CC1c3[nH]c4ccccc4c3CCN21` (stereo not given), the GI50 with NCI-H522, in the assay with OVCAR-5, in the assay with NCI-H23, in the assay with ACHN, in the assay on MCF7 and in the assay on IGROV-1 was > 10 µM (inactive) each time. The GI50 in the assay on SW-620, with Malme-3M, in the assay with UACC-257, in the assay with SK-MEL-2, with 786-0 and in the assay with OVCAR-8 was > 10 µM (inactive) each time. The GI50 with U-251, in the assay on SNB-75, in the assay on MOLT-4, in the assay with NCI/ADR-RES, with CAKI-1 and in the assay with NCI-H460 was > 10 µM (inactive) in each case. The GI50 with OVCAR-3 and with HCT-116 was > 10 µM (inactive) throughout.
`CC12CCC3c4ccc(O)cc4CCC3C1C/C(=N\O)C2O` (stereo not given): the GI50 in the assay with NCI-H522, in the assay with OVCAR-5, in the assay on NCI-H23, with ACHN, in the assay with MCF7 and in the assay with IGROV-1 was > 100 µM (inactive) throughout. For the same compound, the GI50 in the assay with SW-620, in the assay on Malme-3M, in the assay on UACC-257, in the assay on SK-MEL-2, with 786-0 and with OVCAR-8 was > 100 µM (inactive) each time. Moreover, the GI50 in the assay on U-251 was > 100 µM (inactive); in the assay on SNB-75, 36.8 µM (inactive); in the assay with MOLT-4, > 100 µM (inactive); with NCI/ADR-RES it was > 100 µM (inactive); with CAKI-1, > 100 µM (inactive); with NCI-H460, > 100 µM (inactive). Further, the GI50 with OVCAR-3 and in the assay with HCT-116 was > 100 µM (inactive) throughout.

(Values after ChEMBL document CHEMBL1201862, “PubChem BioAssay data set” (2004).)
